Measured values from PubChem BioAssay (NCI).
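Where inhibition never reached the appropriate level, the endpoint shown equals the highest concentration tested. Otherwise, values were interpolated linearly from a five-concentration, 48-hour dose response in 96-well plates. Here, GI50 denotes the concentration required for 50% inhibition of growth. TGI denotes the concentration required for complete inhibition of growth.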

Assays:
Assay in all cases: growth of human tumour cells (NCI), 48 h
SR leukemia = tested on: SR leukemia
SN12C renal = tested on: SN12C renal
OVCAR-3 ovarian = tested on: OVCAR-3 ovarian
TK-10 renal = tested on: TK-10 renal
SF-268 CNS = tested on: SF-268 CNS
SK-MEL-2 melanoma = tested on: SK-MEL-2 melanoma
KM12 colon = tested on: KM12 colon
RPMI-8226 leukemia = tested on: RPMI-8226 leukemia
IGROV1 ovarian = tested on: IGROV1 ovarian
HT29 colon = tested on: HT29 colon
M14 melanoma = tested on: M14 melanoma
UACC-62 melanoma = tested on: UACC-62 melanoma
OVCAR-5 ovarian = tested on: OVCAR-5 ovarian
SK-MEL-28 melanoma = tested on: SK-MEL-28 melanoma
MOLT-4 leukemia = tested on: MOLT-4 leukemia
SF-539 CNS = tested on: SF-539 CNS
A498 renal = tested on: A498 renal
CAKI-1 renal = tested on: CAKI-1 renal
HCT-15 colon = tested on: HCT-15 colon
786-0 renal = tested on: 786-0 renal
MALME-3M melanoma = tested on: MALME-3M melanoma
RXF 393 renal = tested on: RXF 393 renal
UO-31 renal = tested on: UO-31 renal
K-562 leukemia = tested on: K-562 leukemia
NCI-H23 lung = tested on: NCI-H23 lung
LOX IMVI melanoma = tested on: LOX IMVI melanoma
BT-549 breast = tested on: BT-549 breast
SNB-75 CNS = tested on: SNB-75 CNS
COLO 205 colon = tested on: COLO 205 colon
HOP-62 NSCLC = tested on: HOP-62 NSCLC
NCI-H226 lung = tested on: NCI-H226 lung
EKVX NSCLC = tested on: EKVX NSCLC
MCF7 breast = tested on: MCF7 breast
MDA-MB-231 breast = tested on: MDA-MB-231 breast
MDA-MB-435 = tested on: MDA-MB-435
HCC-2998 colon = tested on: HCC-2998 colon
NCI/ADR-RES ovarian = tested on: NCI/ADR-RES ovarian
NCI-H522 lung = tested on: NCI-H522 lung
HS 578T breast = tested on: HS 578T breast
SW-620 colon = tested on: SW-620 colon
T-47D breast = tested on: T-47D breast
NCI-H460 lung = tested on: NCI-H460 lung
OVCAR-4 ovarian = tested on: OVCAR-4 ovarian
SK-OV-3 ovarian = tested on: SK-OV-3 ovarian
DU-145 prostate = tested on: DU-145 prostate
UACC-257 melanoma = tested on: UACC-257 melanoma
PC-3 prostate = tested on: PC-3 prostate
HOP-92 NSCLC = tested on: HOP-92 NSCLC
CCRF-CEM leukemia = tested on: CCRF-CEM leukemia
HL-60(TB) leukemia = tested on: HL-60(TB) leukemia
MDA-N = tested on: MDA-N
A549 NSCLC = tested on: A549 NSCLC
ACHN renal = tested on: ACHN renal
HCT-116 colon = tested on: HCT-116 colon
U251 CNS = tested on: U251 CNS
SNB-19 CNS = tested on: SNB-19 CNS
OVCAR-8 ovarian = tested on: OVCAR-8 ovarian
SF-295 CNS = tested on: SF-295 CNS
SK-MEL-5 melanoma = tested on: SK-MEL-5 melanoma

CC(C)(C)c1ccc(S(=O)(=O)N2C(c3cccc(C4CC[C@@H](C(=O)O)N4S(=O)(=O)c4ccc(C(C)(C)C)cc4)c3)CC[C@H]2C(=O)O)cc1 (stereo partly drawn)
TGI (SR leukemia): > 100 µM | TGI (SN12C renal): > 100 µM | TGI (OVCAR-3 ovarian): > 100 µM | TGI (TK-10 renal): > 100 µM | TGI (SF-268 CNS): > 100 µM | TGI (SK-MEL-2 melanoma): > 100 µM | TGI (KM12 colon): > 100 µM | TGI (RPMI-8226 leukemia): > 100 µM | TGI (IGROV1 ovarian): > 100 µM | TGI (HT29 colon): > 100 µM | TGI (M14 melanoma): > 100 µM | TGI (UACC-62 melanoma): > 100 µM | TGI (OVCAR-5 ovarian): > 100 µM | TGI (SK-MEL-28 melanoma): > 100 µM | TGI (MOLT-4 leukemia): > 100 µM | TGI (SF-539 CNS): > 100 µM | TGI (A498 renal): > 100 µM | TGI (CAKI-1 renal): > 100 µM | TGI (HCT-15 colon): > 100 µM | TGI (786-0 renal): > 100 µM | TGI (MALME-3M melanoma): > 100 µM | TGI (RXF 393 renal): > 100 µM | TGI (UO-31 renal): 87.3 µM | TGI (K-562 leukemia): > 100 µM | TGI (NCI-H23 lung): > 100 µM | TGI (LOX IMVI melanoma): > 100 µM | TGI (BT-549 breast): > 100 µM | TGI (SNB-75 CNS): > 100 µM | TGI (COLO 205 colon): > 100 µM | TGI (HOP-62 NSCLC): > 100 µM | TGI (NCI-H226 lung): > 100 µM | TGI (EKVX NSCLC): > 100 µM | TGI (MCF7 breast): > 100 µM | TGI (MDA-MB-231 breast): > 100 µM | TGI (MDA-MB-435): > 100 µM | TGI (HCC-2998 colon): > 100 µM | TGI (NCI/ADR-RES ovarian): > 100 µM | TGI (NCI-H522 lung): > 100 µM | TGI (HS 578T breast): > 100 µM | TGI (SW-620 colon): > 100 µM | TGI (T-47D breast): > 100 µM | TGI (NCI-H460 lung): > 100 µM | TGI (OVCAR-4 ovarian): > 100 µM | TGI (SK-OV-3 ovarian): > 100 µM | TGI (DU-145 prostate): > 100 µM | TGI (UACC-257 melanoma): > 100 µM | TGI (PC-3 prostate): > 100 µM | TGI (HOP-92 NSCLC): > 100 µM | TGI (CCRF-CEM leukemia): > 100 µM | TGI (HL-60(TB) leukemia): > 100 µM | TGI (MDA-N): > 100 µM | TGI (A549 NSCLC): > 100 µM | TGI (ACHN renal): > 100 µM | TGI (HCT-116 colon): > 100 µM | TGI (U251 CNS): > 100 µM | TGI (SNB-19 CNS): > 100 µM | TGI (OVCAR-8 ovarian): > 100 µM | TGI (SF-295 CNS): > 100 µM | TGI (SK-MEL-5 melanoma): > 100 µM

COc1ccccc1-c1cc(=O)c2c(C)ccnc2[nH]1
TGI (SR leukemia): 64.2 µM | TGI (SN12C renal): > 100 µM | GI50 (OVCAR-3 ovarian): 12.8 µM | TGI (OVCAR-3 ovarian): 43.1 µM | TGI (TK-10 renal): > 100 µM | TGI (SF-268 CNS): > 100 µM | TGI (SK-MEL-2 melanoma): > 100 µM | TGI (KM12 colon): > 100 µM | TGI (RPMI-8226 leukemia): > 100 µM | TGI (IGROV1 ovarian): > 100 µM | TGI (HT29 colon): > 100 µM | TGI (M14 melanoma): > 100 µM | TGI (UACC-62 melanoma): > 100 µM | TGI (OVCAR-5 ovarian): > 100 µM | TGI (SK-MEL-28 melanoma): > 100 µM | TGI (MOLT-4 leukemia): > 100 µM | TGI (SF-539 CNS): > 100 µM | TGI (A498 renal): 85.3 µM | TGI (CAKI-1 renal): > 100 µM | TGI (HCT-15 colon): > 100 µM | GI50 (786-0 renal): 59.9 µM | TGI (786-0 renal): > 100 µM | TGI (MALME-3M melanoma): > 100 µM | TGI (RXF 393 renal): > 100 µM | TGI (UO-31 renal): > 100 µM | TGI (K-562 leukemia): > 100 µM | TGI (NCI-H23 lung): > 100 µM | TGI (LOX IMVI melanoma): > 100 µM | TGI (BT-549 breast): 44.3 µM | TGI (SNB-75 CNS): 56.8 µM | TGI (COLO 205 colon): 69.3 µM | TGI (HOP-62 NSCLC): > 100 µM | TGI (NCI-H226 lung): 98.9 µM | TGI (EKVX NSCLC): > 100 µM | TGI (MCF7 breast): > 100 µM | TGI (MDA-MB-231 breast): > 100 µM | GI50 (MDA-MB-435): 6.52 µM | TGI (MDA-MB-435): 30.5 µM | TGI (HCC-2998 colon): > 100 µM | TGI (NCI/ADR-RES ovarian): 53.2 µM | TGI (NCI-H522 lung): 43.7 µM | TGI (HS 578T breast): 61.4 µM | TGI (SW-620 colon): 40.7 µM | TGI (T-47D breast): > 100 µM | GI50 (NCI-H460 lung): 23.9 µM | TGI (NCI-H460 lung): > 100 µM | TGI (OVCAR-4 ovarian): > 100 µM | TGI (SK-OV-3 ovarian): > 100 µM | TGI (DU-145 prostate): > 100 µM | TGI (UACC-257 melanoma): > 100 µM | GI50 (PC-3 prostate): 21 µM | TGI (PC-3 prostate): > 100 µM | TGI (HOP-92 NSCLC): > 100 µM | TGI (CCRF-CEM leukemia): > 100 µM | GI50 (HL-60(TB) leukemia): 21 µM | TGI (HL-60(TB) leukemia): 83.7 µM | GI50 (MDA-N): 8.41 µM | TGI (MDA-N): 33.1 µM | TGI (A549 NSCLC): > 100 µM | TGI (ACHN renal): > 100 µM | GI50 (HCT-116 colon): 7.58 µM | TGI (HCT-116 colon): 46.3 µM | GI50 (U251 CNS): 35.3 µM | TGI (U251 CNS): > 100 µM | TGI (SNB-19 CNS): > 100 µM | TGI (OVCAR-8 ovarian): > 100 µM | GI50 (SF-295 CNS): 23.7 µM | TGI (SF-295 CNS): 80.1 µM | GI50 (SK-MEL-5 melanoma): 22.6 µM | TGI (SK-MEL-5 melanoma): 96.6 µM

N#Cc1c(N2CCCC2)ncn(-c2ccccc2)c1=S
TGI (SR leukemia): > 100 µM | TGI (SN12C renal): > 100 µM | TGI (OVCAR-3 ovarian): > 100 µM | TGI (TK-10 renal): > 100 µM | TGI (SF-268 CNS): > 100 µM | TGI (SK-MEL-2 melanoma): > 100 µM | TGI (KM12 colon): > 100 µM | TGI (RPMI-8226 leukemia): > 100 µM | TGI (IGROV1 ovarian): > 100 µM | TGI (HT29 colon): > 100 µM | TGI (M14 melanoma): > 100 µM | TGI (UACC-62 melanoma): 69.3 µM | TGI (OVCAR-5 ovarian): > 100 µM | TGI (SK-MEL-28 melanoma): > 100 µM | TGI (MOLT-4 leukemia): > 100 µM | TGI (SF-539 CNS): > 100 µM | TGI (A498 renal): > 100 µM | TGI (CAKI-1 renal): > 100 µM | TGI (HCT-15 colon): > 100 µM | TGI (786-0 renal): > 100 µM | TGI (MALME-3M melanoma): > 100 µM | TGI (RXF 393 renal): > 100 µM | TGI (UO-31 renal): > 100 µM | TGI (K-562 leukemia): > 100 µM | TGI (NCI-H23 lung): > 100 µM | TGI (LOX IMVI melanoma): > 100 µM | TGI (BT-549 breast): > 100 µM | TGI (SNB-75 CNS): > 100 µM | TGI (COLO 205 colon): > 100 µM | TGI (HOP-62 NSCLC): > 100 µM | TGI (NCI-H226 lung): > 100 µM | TGI (EKVX NSCLC): > 100 µM | TGI (MCF7 breast): > 100 µM | TGI (MDA-MB-231 breast): > 100 µM | TGI (MDA-MB-435): > 100 µM | TGI (HCC-2998 colon): > 100 µM | TGI (NCI/ADR-RES ovarian): > 100 µM | TGI (NCI-H522 lung): > 100 µM | TGI (HS 578T breast): > 100 µM | TGI (SW-620 colon): > 100 µM | TGI (T-47D breast): > 100 µM | TGI (NCI-H460 lung): > 100 µM | TGI (OVCAR-4 ovarian): > 100 µM | TGI (SK-OV-3 ovarian): > 100 µM | TGI (DU-145 prostate): > 100 µM | TGI (UACC-257 melanoma): > 100 µM | TGI (PC-3 prostate): > 100 µM | TGI (HOP-92 NSCLC): > 100 µM | TGI (CCRF-CEM leukemia): > 100 µM | TGI (HL-60(TB) leukemia): > 100 µM | TGI (MDA-N): > 100 µM | TGI (A549 NSCLC): > 100 µM | TGI (ACHN renal): > 100 µM | TGI (HCT-116 colon): > 100 µM | TGI (U251 CNS): > 100 µM | TGI (SNB-19 CNS): > 100 µM | TGI (OVCAR-8 ovarian): > 100 µM | TGI (SF-295 CNS): > 100 µM | TGI (SK-MEL-5 melanoma): > 100 µM
